In ChEMBL document CHEMBL1158143, “Zinagrandinolides A-C, cytotoxic delta-elemanolide-type sesquiterpene lactones from Zinnia grandiflora” (J Nat Prod, 2006):

What was measured:
[1] = Cytotoxicity against human WI38 cells after 24 hrs by MTT assay; type: cell-based; details: WI-38, 24 h
MCF7 = experiment: Cytotoxicity against human MCF7 cells after 24 hrs by MTT assay; type: functional, cell-based; details: MCF7, 24 h
SF-268 = experiment: Cytotoxicity against human SF-268 cells after 24 hrs by MTT assay; type: functional, cell-based; details: SF-268, 24 h
NCI-H460 = experiment: Cytotoxicity against human NCI-H460 cells after 24 hrs by MTT assay; type: functional, cell-based; details: NCI-H460, 24 h
MIA PaCa-2 = experiment: Cytotoxicity against human MIA PaCa2 cells after 24 hrs by MTT assay; type: functional, cell-based; details: MIA PaCa-2, 24 h

Structure (SMILES)	IC50 [1]	IC50 (MCF7)	IC50 (SF-268)	IC50 (NCI-H460)	IC50 (MIA PaCa-2)
C=C1C(=O)O[C@H]2[C@@H](OC(C)=O)[C@@H]1[C@H](OC(=O)C(C)(C)O)[C@H](C(=C)C=O)[C@@]2(C)[C@@H]1CO1 (relative stereo)	760 nM	520 nM	640 nM	970 nM	440 nM
C=C1C(=O)O[C@H]2[C@@H](OC(C)=O)[C@@H]1[C@H](OC(=O)C(C)(O)CC)[C@H](C(=C)C=O)[C@@]2(C)[C@@H]1CO1 (relative stereo) [ZINAGRANDINOLIDE A]	690 nM	510 nM	290 nM	450 nM	220 nM
C=C[C@@]1(C)[C@H]2OC(=O)C(=C)[C@H]([C@@H]2OC(C)=O)[C@H](OC(=O)C(C)(O)CC)[C@@H]1C(=C)C=O (relative stereo) [ZINAGRANDINOLIDE B]	430 nM	380 nM	300 nM	250 nM	210 nM
C=C[C@@]1(C)[C@H]2OC(=O)C(=C)[C@H]([C@@H]2OC(C)=O)[C@H](OC(=O)C(C)(C)O)[C@@H]1C(=C)C=O (relative stereo) [ZINAGRANDINOLIDE C]	640 nM	550 nM	440 nM	270 nM	320 nM
COc1cccc2c1C(=O)c1c(O)c3c(c(O)c1C2=O)C[C@@](O)(C(=O)CO)C[C@@H]3O[C@H]1C[C@H](N)[C@H](O)[C@H](C)O1 [DOXORUBICIN]	300 nM			10 nM	
